Laboratory results as given in patent US20260077051A1, “COMPOUNDS FOR THE DEGRADATION OF EGFR KINASE” (BeOne Medicines I GmbH, priority 2023, published 2026).

Columns and labels:
[1] = biological target: T1, EGFR L858R (BaF3-L858R cells) (Homo sapiens, UniProt P00533, L858R); assay: EGFR degradation in BaF3-L858R cells (HTRF assay); assay type: cell-based; conditions: 16 h treatment; for DC50: IC50(DC50) of EGFR degradation; for Dmax: maximum percentage of inhibition (degradation)
T1 construct: host or cells: BaF3
T1 sequence (P00533 25-1210 L858R): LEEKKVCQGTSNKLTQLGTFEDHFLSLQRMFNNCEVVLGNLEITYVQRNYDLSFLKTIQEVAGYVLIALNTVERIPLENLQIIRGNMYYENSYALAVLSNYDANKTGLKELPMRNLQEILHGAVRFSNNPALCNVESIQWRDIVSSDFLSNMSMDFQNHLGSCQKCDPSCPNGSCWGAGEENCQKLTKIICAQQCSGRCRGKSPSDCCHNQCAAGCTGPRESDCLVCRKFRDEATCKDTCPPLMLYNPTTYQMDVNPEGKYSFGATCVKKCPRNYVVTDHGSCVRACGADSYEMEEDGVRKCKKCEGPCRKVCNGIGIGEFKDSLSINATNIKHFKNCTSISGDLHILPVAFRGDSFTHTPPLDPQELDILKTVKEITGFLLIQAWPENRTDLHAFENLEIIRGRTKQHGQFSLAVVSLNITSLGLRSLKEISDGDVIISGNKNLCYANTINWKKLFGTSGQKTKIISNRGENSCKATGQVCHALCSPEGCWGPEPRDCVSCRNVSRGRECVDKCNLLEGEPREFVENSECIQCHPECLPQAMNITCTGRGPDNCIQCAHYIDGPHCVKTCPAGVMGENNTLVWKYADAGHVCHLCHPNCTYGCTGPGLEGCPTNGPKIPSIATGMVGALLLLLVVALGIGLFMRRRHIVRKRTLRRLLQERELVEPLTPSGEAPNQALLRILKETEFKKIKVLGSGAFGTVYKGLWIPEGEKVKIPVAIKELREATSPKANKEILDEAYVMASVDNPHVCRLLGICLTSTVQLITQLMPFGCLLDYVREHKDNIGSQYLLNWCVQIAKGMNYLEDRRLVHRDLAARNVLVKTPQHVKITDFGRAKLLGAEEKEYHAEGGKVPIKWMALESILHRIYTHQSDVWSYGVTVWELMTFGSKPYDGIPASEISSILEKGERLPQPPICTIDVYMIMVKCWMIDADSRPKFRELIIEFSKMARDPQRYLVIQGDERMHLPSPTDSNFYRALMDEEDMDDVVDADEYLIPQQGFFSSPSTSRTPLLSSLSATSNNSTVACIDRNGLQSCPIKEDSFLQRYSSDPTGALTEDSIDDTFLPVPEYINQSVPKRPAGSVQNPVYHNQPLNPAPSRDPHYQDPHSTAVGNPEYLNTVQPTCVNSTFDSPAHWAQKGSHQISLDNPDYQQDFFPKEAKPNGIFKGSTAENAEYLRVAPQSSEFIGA
Protocol: BaF3-L858R (abbv. L858R) cell were purchased from Kangyuan Bochuang Biotechnology (Beijing) Co., Ltd.
(§1) H1975-#8 and BaF3-L858R cells are treated with compounds diluted in 0.1% DMSO cell culture medium on day 2, incubate for 16 h, 37° C., 5% CO2. the final concentration of compounds in all assay is start with 10 uM, 5-fold dilution, total 8 doses were included.
(§2) After 16 h treatment, for H1975-#8 cells, add 100 ul HTRF 1× lysis buffer to each well; for BaF3-L858R cells, add 20 μl 4× lysis buffer to each well; seal the plate and incubate 1 hour at room temperature on a plate shaker; Once the cells are lysed, 16 μL of cell lysate are transferred to a PE 384-well HTRF detection plate; 4 μL of pre-mixed HTRF antibodies are added to each well; Cover the plate with a plate sealer, spin 1000 rpm for 1 min, Incubate overnight at room temperature; Read on BMG PheraStar with HTRF protocol (337 nm-665 nm-620 nm).
(§3) The inhibition (degradation) percentage of the compound was calculated by the following equation:
(§4) High control=Cell group with added DMSO and without compound, indicating microplate readings without EGFR degradation;
(§5) Dmax is the maximum percentage of inhibition (degradation).
(§6) The IC50(DC50) value of a compound can be obtained by fitting the following equation
(§7) Wherein, X and Y are known values, and IC50, Hillslope, Top and Bottom are the parameters obtained by fitting with software. Y is the inhibition percentage (calculated from the equation), X is the concentration of the compound; IC50 is the concentration of the compound when the 50% inhibition is reached. The smaller the IC50 value is, the stronger the inhibitory ability of the compound is. Vice versa, the higher the IC50 value is, the weaker the ability the inhibitory ability of the compound is; Hillslope represents the slope of the fitted curve, generally around 1*; Bottom represents the minimum value of the curve obtained by data fitting, which is generally 0%±20%; Top represents the maximum value of the curve obtained by data fitting, which is generally 100%±20%. The experimental data were fitted by calculating and analyzing with Dotmatics data analysis software.

[2] = biological target: T2, EGFR-L858R/C797S (H1975-clone #8 cells) (Homo sapiens, UniProt P00533, C797S/L858R); assay: EGFR degradation in H1975-clone#8 (L858R/C797S) cells (HTRF assay); assay type: cell-based; conditions: 16 h treatment; for DC50: IC50(DC50) of EGFR degradation; for Dmax: maximum percentage of inhibition (degradation)
T2 construct: expressed in transfected cells; host or cells: H1975 (lentiviral transduction, endogenous EGFR knocked out, single clone #8)
T2 sequence (P00533 25-1210 C797S/L858R): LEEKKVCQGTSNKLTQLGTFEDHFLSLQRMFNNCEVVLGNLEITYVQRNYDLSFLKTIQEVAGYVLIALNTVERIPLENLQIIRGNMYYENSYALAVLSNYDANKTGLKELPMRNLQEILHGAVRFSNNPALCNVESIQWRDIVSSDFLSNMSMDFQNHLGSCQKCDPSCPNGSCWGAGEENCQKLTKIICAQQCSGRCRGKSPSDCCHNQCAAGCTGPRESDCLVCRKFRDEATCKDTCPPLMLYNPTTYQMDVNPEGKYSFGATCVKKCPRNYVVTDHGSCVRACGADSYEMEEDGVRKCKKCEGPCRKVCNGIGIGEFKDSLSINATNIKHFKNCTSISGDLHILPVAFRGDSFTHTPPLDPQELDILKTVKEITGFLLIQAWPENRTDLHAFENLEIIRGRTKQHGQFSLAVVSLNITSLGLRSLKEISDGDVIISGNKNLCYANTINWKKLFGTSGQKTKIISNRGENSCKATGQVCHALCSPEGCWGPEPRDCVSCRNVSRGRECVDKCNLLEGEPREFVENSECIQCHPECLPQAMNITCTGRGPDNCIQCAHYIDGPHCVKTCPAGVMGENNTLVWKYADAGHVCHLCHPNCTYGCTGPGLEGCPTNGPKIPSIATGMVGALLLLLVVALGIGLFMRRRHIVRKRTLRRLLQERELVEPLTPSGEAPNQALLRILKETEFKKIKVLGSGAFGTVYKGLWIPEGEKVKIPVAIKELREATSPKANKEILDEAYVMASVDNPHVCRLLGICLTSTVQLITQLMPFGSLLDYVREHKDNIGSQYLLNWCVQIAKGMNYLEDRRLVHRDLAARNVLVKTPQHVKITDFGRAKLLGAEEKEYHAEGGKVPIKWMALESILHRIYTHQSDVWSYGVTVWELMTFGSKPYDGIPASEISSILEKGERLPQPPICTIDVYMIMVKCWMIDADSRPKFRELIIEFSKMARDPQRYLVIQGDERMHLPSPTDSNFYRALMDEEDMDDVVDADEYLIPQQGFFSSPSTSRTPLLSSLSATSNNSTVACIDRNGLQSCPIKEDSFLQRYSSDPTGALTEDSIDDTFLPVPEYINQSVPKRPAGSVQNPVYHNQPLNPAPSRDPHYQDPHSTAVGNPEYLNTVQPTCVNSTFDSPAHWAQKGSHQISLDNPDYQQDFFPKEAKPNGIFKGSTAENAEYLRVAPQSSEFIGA
Protocol: H1975-clone #8 (L858R/C797S): EGFR-L858R/C797S were stably expressed in H1975 cell lines by lentivirus-mediated over-expression, respectively. The EGFR over-expressed cells then underwent knockout, in which the EGFR targeting sgRNA was designed to only target the endogenous EGFR copies and preserve the exogenous EGFR copies. Followed by the knockout, the edited H1975 cells were seeded in 96 well plates at the concentration of […], cultured for about 2 weeks to allow single clones formation. The formed clones were screened by DNA sequencing and whole exon sequencing analysis for the desired edition. H1975-clone #8 were finally confirmed as homozygous L858R/C797S EGFR clones.
as §1, §2, §3, §4, §5, §6, §7

| Structure (SMILES) | DC50 [1] [nM] | Dmax [1] [%] | DC50 [2] [nM] | Dmax [2] [%] |
| --- | --- | --- | --- | --- |
| Cc1cc2cc(n1)-c1cnn(C)c1OCC[C@H]1C[C@@H]1CN1/C(=N/C2=O)Nc2ccc(N3CCN(C4CCN(c5c(C)cc(C6CCC(=O)NC6=O)nc5C)CC4)CC3)cc21 (some centres unmarked) [Example 15, 3-(5-(4-(4-((7^1S,7^2R,E)-1^1,2^6-dimethyl-3-oxo-5^2,5^3-dihydro-1^1H,5^1H-10-oxa-4-aza-5 (2,1)-benzo[d]imidazola-2 (2,4)-pyridina-1 (4,5)-pyrazola-7 (1,2)-cyclopropanacyclodecaphane-5^6-yl)piperazin-1-yl)piperidin-1-yl)-4,6-dimethylpyridin-2-yl)piperidine-2,6-dione] | 4.48 | 82.5 | 4.96 | 46.1 |
| Cc1cc2cc(n1)-c1cnn(C)c1OCC[C@H]1C[C@@H]1CN1/C(=N/C2=O)Nc2ccc(N3CCN(C4CCN(c5cc(F)c(C6CCC(=O)NC6=O)nc5C)CC4)CC3)cc21 (some centres unmarked) [Example 16, 3-(5-(4-(4-((7^1S,7^2R,E)-1^1,2^6-dimethyl-3-oxo-5^2,5^3-dihydro-1^1H,5^1H-10-oxa-4-aza-5 (2,1)-benzo[d]imidazola-2 (2,4)-pyridina-1 (4,5)-pyrazola-7 (1,2)-cyclopropanacyclodecaphane-5^6-yl)piperazin-1-yl)piperidin-1-yl)-3-fluoro-6-methylpyridin-2-yl)piperidine-2,6-dione] | 18 | 76.4 | 7.82 | 73.3 |
| Cc1cc2cc(n1)-c1cnn(C)c1OCC[C@]1(C)C[C@H]1CN1/C(=N/C2=O)Nc2ccc(N3CCN(C4CCN(c5cc(F)c([C@H]6CCC(=O)NC6=O)c(F)c5)CC4)CC3)cc21 [Example 17, (R)-3-(2,6-difluoro-4-(4-(4-((7^1R,7^2S,E)-1^1,2^6,7^2-trimethyl-3-oxo-5^2,5^3-dihydro-1^1H,5^1H-10-oxa-4-aza-5 (2,1)-benzo[d]imidazola-2 (2,4)-pyridina-1 (4,5)-pyrazola-7 (1,2)-cyclopropanacyclodecaphane-5^6-yl)piperazin-1-yl)piperidin-1-yl)phenyl)piperidine-2,6-dione] | 2.32 | 84.1 | 1.6 | 68.7 |
| Cc1cc2cc(n1)-c1cnn(C)c1OCC[C@H]1C[C@@H]1CN1/C(=N/C2=O)Nc2ccc(N3CCN(C4CCN(c5cccc6c5C(C)(C)C(=O)N6C5CCC(=O)NC5=O)CC4)CC3)cc21 (some centres unmarked) [Example 18, 3-(4-(4-(4-((7^1S,7^2R,E)-1^1,2^6-dimethyl-3-oxo-5^2,5^3-dihydro-1^1H,5^1H-10-oxa-4-aza-5 (2,1)-benzo[d]imidazola-2 (2,4)-pyridina-1 (4,5)-pyrazola-7 (1,2)-cyclopropanacyclodecaphane-5^6-yl)piperazin-1-yl)piperidin-1-yl)-3,3-dimethyl-2-oxoindolin-1-yl)piperidine-2,6-dione] | 6.69 | 84.6 | 5.12 | 66.3 |
| Cc1cc2cc(n1)-c1cnn(C)c1OCC[C@]1(C)C[C@H]1CN1/C(=N/C2=O)Nc2ccc(N3CCN(C4CCN(c5ccc(C6CCC(=O)NC6=O)nc5C)CC4)CC3)cc21 (some centres unmarked) [Example 19, 3-(6-methyl-5-(4-(4-((7^1R,7^2S,E)-1^1,2^6,7^2-trimethyl-3-oxo-5^2,5^3-dihydro-1^1H,5^1H-10-oxa-4-aza-5 (2,1)-benzo[d]imidazola-2 (2,4)-pyridina-1 (4,5)-pyrazola-7 (1,2)-cyclopropanacyclodecaphane-5^6-yl)piperazin-1-yl)piperidin-1-yl)pyridin-2-yl)piperidine-2,6-dione] | 1.93 | 94.5 | 3 | 75 |
| Cc1cc2cc(n1)-c1cnn(C)c1OCC[C@H]1C[C@@H]1CN1/C(=N/C2=O)Nc2ccc(N3CCN(C4CN(C5CCN(c6ccc(C7CCC(=O)NC7=O)nc6C)CC5)C4)CC3)cc21 (some centres unmarked) [Example 20, 3-(5-(4-(3-(4-((7^1S,7^2R,E)-1^1,2^6-dimethyl-3-oxo-5^2,5^3-dihydro-1^1H,5^1H-10-oxa-4-aza-5 (2,1)-benzo[d]imidazola-2 (2,4)-pyridina-1 (4,5)-pyrazola-7 (1,2)-cyclopropanacyclodecaphane-5^6-yl)piperazin-1-yl)azetidin-1-yl)piperidin-1-yl)-6-methylpyridin-2-yl)piperidine-2,6-dione] | 12.4 | 86.8 | 0.603 | 59.1 |
| Cc1cc2cc(n1)-c1cnn(C)c1OCC[C@H]1C[C@@H]1CN1/C(=N/C2=O)Nc2ccc(N3CCN(CCc4c(C)cc(C5CCC(=O)NC5=O)nc4C)CC3)cc21 (some centres unmarked) [Example 21, 3-(5-(2-(4-((7^1S,7^2R,E)-1^1,2^6-dimethyl-3-oxo-5^2,5^3-dihydro-1^1H,5^1H-10-oxa-4-aza-5 (2,1)-benzo[d]imidazola-2 (2,4)-pyridina-1 (4,5)-pyrazola-7 (1,2)-cyclopropanacyclodecaphane-5^6-yl)piperazin-1-yl)ethyl)-4,6-dimethylpyridin-2-yl)piperidine-2,6-dione] | 1.65 | 82.8 | 19.3 | 40.2 |
| Cc1cc2cc(n1)-c1cnn(C)c1OCC[C@H]1C[C@@H]1CN1/C(=N/C2=O)Nc2ccc(N3CCN(C4CN(C5CCN(c6c(C)cc(C7CCC(=O)NC7=O)nc6C)CC5)C4)C[C@@H]3C)cc21 (stereo partly drawn) [Example 22, 3-(5-(4-(3-((S)-4-((7^1S,7^2R,E)-1^1,2^6-dimethyl-3-oxo-5^2,5^3-dihydro-1^1H,5^1H-10-oxa-4-aza-5 (2,1)-benzo[d]imidazola-2 (2,4)-pyridina-1 (4,5)-pyrazola-7 (1,2)-cyclopropanacyclodecaphane-5^6-yl)-3-methylpiperazin-1-yl)azetidin-1-yl)piperidin-1-yl)-4,6-dimethylpyridin-2-yl)piperidine-2,6-dione] | 3.97 | 83.2 | 2.83 | 67.9 |
| Cc1cc2cc(n1)-c1cnn(C)c1OCC[C@H]1C[C@@H]1CN1/C(=N/C2=O)Nc2ccc(N3CCN(C4CN(C5CCN(c6c(C)cc(C7CCC(=O)NC7=O)nc6C)CC5)C4)C[C@H]3C)cc21 (stereo partly drawn) [Example 24, 3-(5-(4-(3-((R)-4-((7^1S,7^2R,E)-1^1,2^6-dimethyl-3-oxo-5^2,5^3-dihydro-1^1H,5^1H-10-oxa-4-aza-5 (2,1)-benzo[d]imidazola-2 (2,4)-pyridina-1 (4,5)-pyrazola-7 (1,2)-cyclopropanacyclodecaphane-5^6-yl)-3-methylpiperazin-1-yl)azetidin-1-yl)piperidin-1-yl)-4,6-dimethylpyridin-2-yl)piperidine-2,6-dione] | 3.66 | 80 | 2.08 | 49.8 |
| CCc1nc(C2CCC(=O)NC2=O)ccc1N1CCC(N2CCN(c3ccc4c(c3)N3C[C@@H]5C[C@@]5(C)CCOc5c(cnn5C)-c5cc(cc(C)n5)C(=O)/N=C/3N4)CC2)CC1 (some centres unmarked) [Example 25, 3-(6-ethyl-5-(4-(4-((7^1R,7^2S,E)-1^1,2^6,7^2-trimethyl-3-oxo-5^2,5^3-dihydro-1^1H,5^1H-10-oxa-4-aza-5 (2,1)-benzo[d]imidazola-2 (2,4)-pyridina-1 (4,5)-pyrazola-7 (1,2)-cyclopropanacyclodecaphane-5^6-yl)piperazin-1-yl)piperidin-1-yl)pyridin-2-yl)piperidine-2,6-dione] | 2.42 | 91.5 | 1.65 | 57 |
| COC[C@@H]1CN(c2ccc3c(c2)N2C[C@@H]4C[C@@]4(C)CCOc4c(cnn4C)-c4cc(cc(C)n4)C(=O)/N=C/2N3)CCN1C1CCN(c2cc(F)c([C@H]3CCC(=O)NC3=O)c(F)c2)CC1 [Example 26, (R)-3-(2,6-difluoro-4-(4-((S)-2-(methoxymethyl)-4-((7^1R,7^2S,E)-1^1,2^6,7^2-trimethyl-3-oxo-5^2,5^3-dihydro-1^1H,5^1H-10-oxa-4-aza-5 (2,1)-benzo[d]imidazola-2 (2,4)-pyridina-1 (4,5)-pyrazola-7 (1,2)-cyclopropanacyclodecaphane-5^6-yl)piperazin-1-yl)piperidin-1-yl)phenyl)piperidine-2,6-dione] | 4.02 | 85.7 | 3.41 | 58.9 |
